“Also recorded” adds a separate entry of the source. Where two headings read alike, the source gives them in different places.
How the values were obtained:
[1] = system: A549 cells; assay: Boyden chamber invasion assay, A549; type: cell-based; conditions: LNA-21 100 nM, 2 1000 nM
Experimental: (§1) Boyden Chamber Invasion Assay. The MDA-MB-231, MDA-LM2, A375, A549, or MCF-10a cells (5×10^4) were seeded into Hanging Cell Culture Inserts for 24 well plates with uncoated membranes with 8.0 μm pores (Millicell) in serum free growth media. A 3 mg/mL layer (100 μL) of Matrigel (Fisher Scientific: CB40234) diluted with serum free growth media was prepared inside of each membrane. Cells were cultured as described above, with or without compound treatment, and allowed to invade towards complete growth media in the bottom well for 16-24 h before ending the experiment by removing the media in the bottom wells and inserts. The hanging cell culture inserts and bottom wells were washed twice with 1×PBS, gently shaking to mix. Excess liquid and cells inside the insert were removed with cotton swabs, after which 400 μL of 4% paraformaldehyde was placed into the bottom well and incubated for 20 min at room temperature to fix the cells. […] Four different fields of view from each captured image were counted for crystal violet stained or unstained cells. Normalized cells invaded was calculated with equation 5 (Eq 5): […]
(§2) where stained cells represent cells counted with crystal violet stain observed in the compound treated or vehicle treated samples, respectively.

[2] = system: MDA-MB-231 cells; assay: Boyden chamber invasion assay, MDA-MB-231; type: cell-based, human; conditions: for effect on invasion upon transient expression of pre-miR-21: MDA-MB-231 + pre-miR-21; for effect on invasion: MDA-MB-231, LNA-21 100 nM, 2 1000 nM
Experimental: Boyden Chamber Invasion Assay. The MDA-MB-231, MDA-LM2, A375, A549, or MCF-10a cells (5×10^4) were seeded into Hanging Cell Culture Inserts for 24 well plates with uncoated membranes with 8.0 μm pores (Millicell) in serum free growth media. A 3 mg/mL layer (100 μL) of Matrigel (Fisher Scientific: CB40234) diluted with serum free growth media was prepared inside of each membrane. Cells were cultured as described above, with or without compound treatment, and allowed to invade towards complete growth media in the bottom well for 16-24 h before ending the experiment by removing the media in the bottom wells and inserts. The hanging cell culture inserts and bottom wells were washed twice with 1×PBS, gently shaking to mix. Excess liquid and cells inside the insert were removed with cotton swabs, after which 400 μL of 4% paraformaldehyde was placed into the bottom well and incubated for 20 min at room temperature to fix the cells. The wells and inserts were washed twice with 1×PBS and then treated with 400 μL of 0.1% crystal violet solution for 20 min at room temperature to stain the cells. The wells and inserts were washed twice with water, followed by one wash with 1×PBS. Inserts were dried with cotton swabs to remove extra stain and cells inside the insert, then were air-dried, followed by Brightfield microscopic analysis using a Leica DMI3000 B […] fluorescent microscope. Four different fields of view from each captured image were counted for crystal violet stained or unstained cells. Normalized cells invaded was calculated with equation 5 (Eq 5): […]
as §2

[3] = system: PDCD4; assay: PDCD4 Western blot in MDA-MB-231 cells; type: cell-based, human; conditions: for effect on PDCD4 protein levels: Western blotting relative to β-actin
Experimental: PDCD4 Western blot: The MDA-MB-231 cells were grown to ˜60% confluency in 6-well plates. Cells were incubated with compounds diluted in growth media for 48 h. Total protein was extracted using M-PER Mammalian Protein Extraction Reagent (Pierce Biotechnology) supplemented with 1×Protease Inhibitor Cocktail III for Mammalian Cells (Research Products International Corp.) per the manufacturer's protocol. Total protein lysate was quantified using a Micro BCA Protein Assay Kit (Pierce Biotechnology). A 30 μg aliquot of total protein was resolved on a 10% Bis-Tris SDS-polyacrylamide gel, with a 5% stacking layer, and then transferred to a PVDF membrane. The membrane was then blocked in 5% (w/v) nonfat dry milk in 1×TBST for 1 h at room temperature. The membrane was then incubated with 1:2000 rabbit mAb PDCD4 primary antibody (Cell Signaling Technology: D29C6) in 1×TBST containing 5% nonfat dry milk overnight at 4° C. The membrane was washed five times for 5 min each with 1×TBST and then incubated with 1:5000 anti-rabbit IgG horseradish peroxidase secondary antibody conjugate (Cell Signaling Technology: 7074S) in 1×TBST containing 5% nonfat dry milk for 1 h at room temperature. After washing seven times for 5 min each with 1×TBST, protein levels were quantified by chemiluminescence using a SuperSignal West Pico Chemiluminescent Substrate (Pierce Biotechnology) per the manufacturer's recommendations. The membrane was stripped with 1×Stripping Buffer (200 mM glycine, pH 2.2, 1% Tween-20 and 0.1% SDS) two times for 5 min each, followed by washing 3 times in 1×TBST. Then, the membrane was blocked and probed for β-actin following the same procedure described above using 1:5000 mouse β-actin primary antibody (Cell Signaling Technology: 8H10D10). The membrane was washed five times with 1×TBST and incubated with 1:10000 anti-mouse IgG horseradish-peroxidase secondary antibody conjugate (Cell Signaling Technology: 7076S). After washing seven times with 1×TBST for 5 min each, protein levels were quantified as described above. ImageJ software was used to quantify band intensities.

[4] = system: pre-miR-21; assay: RT-qPCR of mature miR-21 and pre-miR-21 levels in MDA-MB-231 cells; type: cell-based, human; conditions: for effect on pre-miR-21 upon siRNA ablation of RNase L: 5 at 50 nM; for period over which significantly decreased miR-21 levels were observed after a single dose: Formula 2 1000 nM, Formula 5 50 nM; for effect on mature miR-21 levels / effect on pre-miR-21 levels: MDA-MB-231, RT-qPCR
Experimental: Cell culture compound treatment and transfection. For treatment with compounds, stocks in DMSO or water were diluted in growth media and added to cells for 24-72 h. For transfection of plasmid DNA to overexpress the miR-21 hairpin precursor in pcDNA3.1 (Addgene 21114) or pcDNA3-RNaseL (R. H. Silverman, Cleveland Clinic^24) in 24-well plates, Lipofectamine 2000 was used according to the manufacturer's protocol. After transfection, the medium was removed and replaced with growth medium containing compound prepared as described above. For transfection of a control (Santa Cruz Biotechnology: sc-37007) or RNase L targeting siRNA (Santa Cruz Biotechnology: sc-45965), Lipofectamine RNAiMAX Reagent was used for transfection of oligonucleotides, including 2′-5′ A4, according to the manufacturer's protocol.

[5] = system: A375 cells; assay: Boyden chamber invasion assay, A375; type: cell-based; conditions: LNA-21 100 nM, 2 1000 nM
Experimental: as §1, §2

[6] = system: miR-21 in various cancer cell lines; assay: RT-qPCR of mature miR-21 in various cancer cell lines; type: cell-based

`CCCN(CC(=O)N(CCC)CC(=O)N(CCC)CC(=O)N(CC(=O)NCCOCCOCCOCCOc1ccc(C=C2SC(Nc3ccccc3)=C(C(=O)OCC)C2=O)cc1O)Cc1cn(CCCNC(=O)CCCOc2ccc(-c3nc4cc(-c5ccc(N6CCN(C)CC6)cc5)ccc4[nH]3)cc2)nn1)C(=O)CN(Cc1cn(CCCNC(=O)CCCOc2ccc(-c3nc4cc(-c5ccc(N6CCN(C)CC6)cc5)ccc4[nH]3)cc2)nn1)C(C)=O` [Compound 5] was tested, and the effect on invasion ([1]; listed as Formula 5) was “decreased invasiveness”, the “effect on invasion upon transient expression of pre-miR-21” value [2] was “ablated” and the “effect on invasion upon transient expression of pre-miR-21” value ([2]; listed as Formula 5) was “ablated the inhibitory effect”. For the same compound, the effect on invasion [2] was “significant decrease of invasion”, the effect on invasion ([2]; listed as Formula 5) was “effectively inhibited invasion” and the “effect on PDCD4 protein levels” value [3] was “de-repress levels of PDCD4 protein”. The “effect on pre-miR-21 upon siRNA ablation of RNase L” value ([4]; MDA-MB-231) was “diminished effects”, the “effect on pre-miR-21 upon siRNA ablation of RNase L” value ([4]; MDA-MB-231, listed as Formula 5) was “decreased the ability of Formula 5 to cleave pre-miR-21” and the “period over which significantly decreased miR-21 levels were observed after a single dose” value ([4]; MDA-MB-231) was 96 h. The “enhanced activity for affecting miR-21 levels over parent 2” value ([4]; MDA-MB-231) was 20 fold, the “potency of enzymatic cleavage versus bleomycin conjugate of 2” value ([4]; MDA-MB-231) was 10 fold and the “effect on mature miR-21 levels” value [4] was “decreased miR-21 levels”. The “effect on pre-miR-21 levels” value [4] was “decreased pre-miR-21”, the “effect on pre-miR-21 levels” value ([4]; listed as Formula 5) was “diminished” and the IC50 ([4]; MDA-MB-231, read-out: IC50, affecting miR-21 levels) was roughly 50 nM. For the same compound, the effect on invasion ([5]; listed as Formula 5) was “decreased invasiveness”, the “effect on mature miR-21 levels” value [6] was “decreased mature miR-21 levels” and the “effect on mature miR-21 levels” value ([6]; listed as Formula 5) was “significantly inhibited miR-21 levels”.

With `CCCN(CC(=O)N(CCC)CC(=O)N(CCC)CC(=O)N(CC(N)=O)Cc1cn(CCCNC(=O)CCCOc2ccc(-c3nc4cc(-c5ccc(N6CCN(C)CC6)cc5)ccc4[nH]3)cc2)nn1)C(=O)CNCc1cn(CCCNC(=O)CCCOc2ccc(-c3nc4cc(-c5ccc(N6CCN(C)CC6)cc5)ccc4[nH]3)cc2)nn1` [Compound 2] the effect on invasion [1] was “decreased the invasive phenotype”, the effect on invasion [2] was “decreased the invasive phenotype” and the effect on invasion ([2]; listed as Formula 2) was “inhibited the invasive properties of MDA-MB-231”. The “increase of PDCD4 levels” value ([3]; 1 μM, MDA-MB-231) was roughly 50%, the “effect on PDCD4 protein levels” value [3] was “de-repress levels of PDCD4 protein” and the “period over which significantly decreased miR-21 levels were observed after a single dose” value ([4]; MDA-MB-231) was 48 h. The “effect on mature miR-21 levels” value [4] was “decreased miR-21 levels; also recorded: decreases mature miR-21 levels”, the “effect on pre-miR-21 levels” value [4] was “increased pre-miR-21 levels; also recorded: boosted levels of pre-miR 21” and the IC50 ([4]; MDA-MB-231, read-out: IC50, affecting pre-miR-21 in cells) was 1000 nM. For the same compound, the effect on invasion [5] was “decreased the invasive phenotype” and the “effect on mature miR-21 levels” value [6] was “silenced miR-21”.
